According to ChEMBL document CHEMBL1158253, “Isolation and structure of hemibastadinols 1-3 from the Papua New Guinea marine sponge Ianthella basta” (1996):
Activity calls are given as the source filed them. No cut-off for these calls is given here.

Columns and labels:
[1] = system: Candida albicans; assay: Antimicrobial activity against Candida albicans ATCC 90028 up to 100 ug/disk after 42 hrs by disk susceptibility test; type: functional, organism-based
[2] = system: Cryptococcus neoformans; assay: Antimicrobial activity against Cryptococcus neoformans ATCC 90112 up to 100 ug/disk after 42 hrs by disk susceptibility test; type: functional, organism-based
[3] = system: Neisseria gonorrhoeae; assay: Antimicrobial activity against Neisseria gonorrhoeae ATCC 49226 after 16 hrs by disk susceptibility test; type: functional
[4] = system: Staphylococcus aureus; assay: Antimicrobial activity against Staphylococcus aureus ATCC 29213 after 16 hrs by disk susceptibility test; type: functional
[5] = system: Escherichia coli; assay: Antimicrobial activity against Escherichia coli ATCC 25922 up to 100 ug/disk after 16 hrs by disk susceptibility test; type: functional, organism-based
[6] = system: Enterococcus faecalis; assay: Antimicrobial activity against Enterococcus faecalis ATCC 29212 after 16 hrs by disk susceptibility test; type: functional

MIC [3] [µg]	MIC [4] [µg]	MIC [6] [µg]	SMILES	Activity [1]	Activity [2]	Activity [5]
10	–	–	NC(=O)C(=O)NCCc1ccc(O)c(Br)c1	inactive	inactive	–
6.25	6.25	–	COc1ccc(C/C(=N/O)C(=O)NCCc2ccc(O)c(Br)c2)cc1Br	inactive	inactive	–
50	6.25	12.5	O=C(NCCc1ccc(O)c(Br)c1)/C(Cc1ccc(Oc2cc(C/C(=N/O)C(=O)NCCc3ccc(O)c(Br)c3)cc(Br)c2O)c(Br)c1)=N\O [BASTADIN1]	inactive	inactive	inactive
50	6.25	50	O=C(NCCc1ccc(O)c(Br)c1)/C(Cc1cc(Br)c(O)c(Oc2c(Br)cc(C/C(=N\O)C(=O)NCCc3ccc(O)c(Br)c3)cc2Br)c1)=N\O [BASTADIN 2]	inactive	inactive	–
0.78	1.56	3.12	O=C(NCCc1ccc(O)c(Br)c1)/C(Cc1cc(Br)c(O)c(-c2cc(C/C(=N/O)C(=O)NCCc3ccc(O)c(Br)c3)cc(Br)c2O)c1)=N\O [BASTADIN 3]	inactive	inactive	–
12.5	12.5	50	O=C1N/C=C/c2ccc(c(Br)c2)Oc2cc(cc(Br)c2O)CCNC(=O)/C(=N/O)Cc2cc(Br)c(c(Br)c2)Oc2cc(cc(Br)c2O)C/C1=N\O [BASTADIN 4]	inactive	inactive	–
12.5	1.56	50	O=C(NCCc1ccc(O)c(Br)c1)/C(Cc1ccc(O)c(Br)c1)=N\O [HEMIBASTADIN 1]	inactive	inactive	–
3.12	3.12	–	O=C(NCCc1ccc(O)c(Br)c1)/C(Cc1cc(Br)c(O)c(Br)c1)=N\O [HEMIBASTADIN 2]	inactive	inactive	–
50	–	50	O=C(NCCc1ccc(O)c(Br)c1)[C@@H](O)Cc1ccc(O)c(Br)c1 [HEMIBASTADINOL 1]	inactive	inactive	–

SMILES	MIC [3] [µg]	MIC [4] [µg]	MIC [6] [µg]	Activity [1]	Activity [2]	Activity [5]
O=C1NCCc2cc(Br)c(O)c(c2)Oc2ccc(cc2Br)CCNC(=O)/C(=N\O)Cc2cc(Br)c(O)c(c2)Oc2c(Br)cc(cc2Br)C/C1=N/O [BASTADIN 5]	50	12.5	50	inactive	inactive	–
O=C1NCCc2cc(Br)c(O)c(c2)Oc2c(Br)cc(cc2Br)CCNC(=O)/C(=N/O)Cc2cc(Br)c(O)c(c2)Oc2c(Br)cc(cc2Br)C/C1=N\O [BASTADIN 6]	–	6.25	12.5	inactive	inactive	–
